Experimental findings from US20100130581A1, “COMPOUNDS AND METHODS FOR THE TREATMENT OF PAIN” (THE UNIVERSITY OF QUEENSLAND, priority 2006, published 2010) are described below.

SMILES strings stand for the structures. Where a SMILES comes first, the peptide text is derived from it. [ ]: non-standard residue; d: D form. ξ: configuration not given here. ξAoc(2) = CCCCCCC(N)C(=O)O A value given as a limit tells only on which side of the number the result lay.

Series [1] has as its target T1, μ-opioid receptor (Homo sapiens, UniProt P35372).
T1 construct: SH-SY5Y cells endogenously expressing μ- and δ-opioid receptors; endogenous in cells; host or cells: SH-SY5Y cells
Description: Whole cell-based binding assay, displacement of 3H-DAMGO. As for the experimental part: Media was removed and cells were washed with PBS before pre-incubation in 300 μL of binding buffer. Binding studies were performed with 100 μL of appropriate concentrations of ^3H-labeled DAMGO (a selective μ-opioid receptor agonist) and 100 μL of competitor or blank in binding buffer at 37° C. for 60 min. Competition binding experiments were performed using […] of ^3H-labelled DAMGO in the absence or presence of increasing concentrations of unlabeled derivatised endomorphins or derivatised endomorphin analogs. A 1 μM excess of unlabelled DAMGO was used to determine non-specific binding. Following incubation, the cells were washed with PBS and recovered from culture plates using 500 μL of […] before transfer to scintillation vials. Liquid scintillation cocktail (Ultima Gold, Packard, Meriden, USA) was added to these vials for counting in a liquid scintillation analyser. Data are expressed as the mean±SEM of % specific binding of triplicate determinations performed on at least three independent plates of cells. Data were plotted using the one-site competition functions of the PRISM program (Graphpad Inc., San Diego, USA) (see FIGS. 1a, 1b and 7).
In general terms: In a radioligand displacement assay an active substance lowers the binding of a labelled ligand.

Series [2] relates to μ- and δ-opioid receptors. In words: Cell based assay of cAMP inhibition in forskolin treated SH-SY5Y cells. Conditions: for Inhibit c-AMP (%): SH-SY5Y cell line, normalised to the % of cAMP inhibition seen by native endomorphin-1. As for the experimental part: SH-SY5Y cells endogenously expressing μ- and δ-opioid receptors were cultured (100 μl) in a 96 well-plate and incubated (usually overnight) until 80% confluent. Once cells were ready for assay, Endo-1, Endo-2 and derivatives/analogs were diluted in DMEM culture medium containing 30 μM forskolin. The diluted derivatised endomorphins or derivatised endomorphin analogs were then applied to separate wells for agonist studies and co-incubated for antagonist studies. Cells were incubated with derivatised endomorphins or derivatised endomorphin analogs at 37° C. for 30 minutes, medium was aspirated and cells were lysed using lysis buffer from a cAMP Biotrak EIA kit (Amersham, Buckinghamshire, UK). An anti-cAMP antibody was added to the lysate, and the mixture incubated at 4° C. for 2 hours followed by the addition of a cAMP peroxidase conjugate, and incubated at 4° C. for a further hour. A 3,3′5,5′-tetramethylbenzidine (TMB) substrate provided by the Biotrak EIA kit was then incubated with cell lysate for 1 hour and finally 1 […] was added to facilitate a colour change, which is proportional to the amount of cAMP captured. A cAMP standard curve from 0 to 3200 fmol was also generated concurrently. Plates were then read by a plate reader at 450 nm and compared back to the cAMP standard curve. All data are compared to the maximum cAMP response to forskolin and are represented as the mean+/−standard error of three experiments performed in triplicate. All data are plotted using PRISM program (GraphPad, San Diego, Calif.) (see FIGS. 2a and 2b).

Series [3] in a line: Plasma stability assay. The note with it: male, human, plasma at 37° C. It counts as in vitro ADME. As for the experimental part:
To measure the enzymatic stability of endomorphin-1 analogs in plasma, blood was taken from a healthy volunteer and the blood was centrifuged at 1700 rpm for 30 minutes to remove blood cells. The plasma was placed into a water bath heated at 37° C. and Endomorphin-1 and analog was added to give final concentrations of 0.7 mg/mL. Samples were incubated for varying time periods between 0 and 180 minutes. 50 μL of sample was taken at each time-point and 75 μL of acetonitrile was added to quench any enzyme activity. The samples were then placed on ice and upon completion of the assay, all samples were centrifuged at 9000 rpm for 3 minutes to remove all precipitated plasma proteins. The amount of intact peptide remaining in the supernatent of each sample was determined using RP HPLC by measuring the area under the curve of the peak at the appropriate retention time compared to a standard curve of concentration for each peptide (see FIG. 8).

Series [4] can be described thus: Enzymatic stability study in homogenized Caco-2 cells. It counts as in vitro ADME. Conditions: human, pH 7.4; Caco-2 cell homogenate, 37° C., 100 μM. As for the experimental part:
(§1) Approximately 1×10^5 cells/mL concentration of cells were seeded onto the 96 well plate. […] The media was changed every other day. 21-28 days old cells were used for the experiments. the media was removed from the wells and each well washed with 100 μL 0.2% EDTA solution followed by washing three times with Hanks' balanced salt solution (HBSS) containing 25 mM Hepes (pH 7.4). Finally, 100 μL of this buffer was placed in each well and the plate cooled in ice. The monolayer of cells in each well was then disrupted by 2×1 second pulses with a Sonics Vibracell ultrasonic processor set at an amplitude of 30. The cell debris was then removed by centrifugation of the plate at 2000 rpm for 5 min. 80 μL cell homogenate supernatant of each well was then transferred to a clean 96 well plate, and 20 μL of HBSS-Hepes was added. Three of the wells' contents were set aside and assayed for total protein content using the Lowry assay. The compounds to be tested were dissolved in HBSS-Hepes buffer to a concentration of 200 μM.
(§2) This assay was performed at 37° C. […] The stability assay on each compound was conducted in triplicate and the concentrations averaged for each time point.

Series [5] deals with homogenate of Caco-2 cells. The series is described as above. It counts as in vitro ADME. Conditions: Caco-2 cell line; graded by number of ♦ (up to 5), key not given. As for the experimental part: as §1, §2
Series [6] concerns Caco-2 cells. Description: Caco-2 permeability study. As for the experimental part:
Approximately 1×10^6 cells/mL concentration of cells were seeded onto polycarbonate cell culture inserts (Transwell®; 0.45 μm×6.5 mm diameter). DMEM cell culture media was supplemented with 10% FBS, 1% L-glutamine, 1% nonessential amino acids and 1% 100 U/mL penicillin/streptomycin. The media was changed every other day (0.6 mL in the basolateral chamber and 0.1 mL to the apical chamber) and the monolayers were used between days 21-28. Transepithelial electrical resistance (TEER) of the monolayer was measured using the Millicell-ERS system (Millipore Corporation, Bedford, Mass.). C^14-mannitol permeability was used to monitor the integrity of the Caco-2 monolayers.
Prior to beginning the experiments, the monolayers were washed with pre-warmed HBSS-Hepes buffer, incubated for 30 min. At the start of the experiment the apical chamber was emptied and 100 μL of either the derivatised endomorphin or derivatised endomorphin analog solution was added. The permeability study was performed in triplicate at 37° C. shaking in a Heridolf Titramax shaking at 400 rpm. […] Permeability coefficients (Papp) were calculated from data generated by LC/MS quantitative analysis of all samples using a gradient HPLC system (Shimadzu LC-10AT system) coupled to a triple quadrupole mass spectrometer (PE Sciex API 3000) operating in SIM mode with positive ion electrospray. The mobile phase was a mixture of solvent A (0.1% formic acid in water) and solvent B (0.1% formic acid in 90% acetonitrile/water). A C18 column, 5 μM, 50×2.0 mm (Phenomex®) was used at a flow rate 0.3 mL/min with a gradient from 100% A to 90% B in 7 minutes, incorporating a splitter (1:10).
The permeability of the sugars themselves was also examined.

The nature of series [7]: In vivo biodistribution of 3H-labelled peptide, intravenous. Details: species or system rat. The note with it: rats, i.v. As for the experimental part: FIG. 5(a)-(c) are graphical representations showing in vivo bio-distribution of 1 in rats. […] After 15, 30 and 60 minutes, 5 rats were sacrificed and the brain FIG. 5(a), liver FIG. 5(b) and blood FIG. 5(c) of each rat were removed following intravenous administration. The organs were subsequently homogenised in buffer and a sample removed and placed in tissue solubiliser for 3 days. After this time a small sample was removed and treated with bleach over night to remove any colour from the solution and the resulting sample dissolved in scintillation fluid and the radioactivity measured by liquid scintillation. […] The apparent increase in blood levels of the parent peptide after 60 minutes is likely due to the breakdown of the compound and release of the radiolabeled acetate into the blood stream.

Series [8] is described as follows: In vivo biodistribution of 3H-labelled peptide, oral. The arrangement: species or system rat. The note with it: rats, oral administration. As for the experimental part:
After 15, 30 and 60 minutes, 5 rats were sacrificed and the brain, liver, blood, kidneys, stomach, spleen, small intestine and large intestine were removed following oral administration. The organs were subsequently homogenised in buffer and a sample removed and placed in tissue solubiliser for 3 days. After this time a small sample was removed and treated with bleach over night to remove any colour from the solution and the resulting sample dissolved in scintillation fluid and the radioactivity measured by liquid scintillation.

Series [9] can be described thus: Blood plasma concentration after oral gavage. It counts as in vivo, rat. Conditions: male rats. As for the experimental part: In another experiment, Lac-endo was fed via oral gavage to male rats and the concentration of the compound in blood plasma measured over time. Sprague-dawley rats (average wt 300 g) were gavaged with 500 μL of a 20 mM Lac-endo or Endomorphin solution in water. Blood samples taken from the tail vein after 30, 60 and 90 min. The blood was centrifuged to remove red blood cells, and in a 100 μL sample of plasma was added to 300 μL of acetonitrile to precipitate proteins. The suspension was centrifuged a second time and the supernatant analysed by LC-MS.

T1 sequence (P35372 whole entry): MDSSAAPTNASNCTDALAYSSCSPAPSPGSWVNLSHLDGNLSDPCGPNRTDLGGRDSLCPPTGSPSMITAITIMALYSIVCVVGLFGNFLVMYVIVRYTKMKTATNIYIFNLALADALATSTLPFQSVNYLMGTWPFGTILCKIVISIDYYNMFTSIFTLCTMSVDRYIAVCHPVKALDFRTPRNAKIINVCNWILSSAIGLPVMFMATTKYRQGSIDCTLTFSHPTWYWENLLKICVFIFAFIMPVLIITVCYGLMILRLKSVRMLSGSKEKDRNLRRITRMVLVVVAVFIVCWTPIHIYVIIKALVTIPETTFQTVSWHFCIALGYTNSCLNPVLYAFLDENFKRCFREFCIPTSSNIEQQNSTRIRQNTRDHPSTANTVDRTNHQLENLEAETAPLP

One may read the Ki as the equilibrium dissociation constant of an inhibitor or competing ligand from its target. By IC50 is commonly meant the concentration that inhibits the measured activity by half. By half-life is commonly meant how long it takes for the measured level to halve. In series [1], `Cc1cc(O)cc(C)c1C[C@H](N)C(=O)N1CCC[C@H]1C(=O)N[C@@H](Cc1c[nH]c2ccccc12)C(=O)N[C@@H](Cc1ccccc1)C(N)=O` [(Dmt^1)Endo, reference compound] registered an inhibitory constant (Ki) of 0.058 nM. This molecule also yielded a concentration for half-maximal inhibition (IC50) in series [2] (Efficacy SH-SY5Y cell line) of 0.156 nM. For the same molecule, the “Inhibit c-AMP (%)” value in series [2] is 160%. The half-life at 0.7 mg/mL in series [3] turned out to be 4.18 min. This molecule showed a half-life at 100 μM in [4] of 8.98 min. Further, the “Enzymatic stability 2 h” value in series [5] was “♦”.

In turn, `CCCCCCC(N)C(=O)N[C@@H](Cc1ccc(O)cc1)C(=O)N1CCC[C@H]1C(=O)N[C@@H](Cc1c[nH]c2ccccc12)C(=O)N[C@@H](Cc1ccccc1)C(N)=O` (some centres unmarked) [Compound 1] (H-[ξAoc(2)]YPWF-NH2) showed a Ki in series [1] of 2.45 nM. Also, the “Ki / binding affinity, in words” value in [1] (displacement of 3H-DAMGO, FIG. 1) is given as “low nanomolar range”. Moreover, the “Inhibit c-AMP (%)” value in series [2] is 97%. This molecule also yielded a half-life in series [4] of 25.5 min. In series [6] (Caco-2 cell monolayers, compared to parent peptide), the “apparent permeability (Papp), in words” value is listed as “significantly improved apparent permeability compared to the parent peptide”. In addition, the “accumulation in the liver, in words” value in [7] was “accumulate less in the liver than the parent peptide”. The “label appearing in the brain” value in [7] (after 15 minutes) is recorded as greater than 10%. Besides, the “delivery to the brain, in words” value in series [8] is “evidence of delivery of the peptide to the brain”. Also, in [8] (over the time of the experiment), the “increase in serum levels compared to the native peptide” value stood at 6 fold.

For the molecule `NC(=O)[C@H](Cc1ccccc1)NC(=O)[C@H](Cc1c[nH]c2ccccc12)NC(=O)[C@@H]1CCCN1C(=O)[C@H](Cc1ccc(O)cc1)NC(=O)CCC(=O)N[C@@H]1O[C@H](CO)[C@@H](O[C@@H]2O[C@H](CO)[C@H](O)[C@H](O)[C@H]2O)[C@H](O)[C@H]1O` [Compound 12], in [6] (Caco-2 monolayers, 20 mM galactose), the “absorption of Lac-endo in presence of galactose” value was “some inhibition of absorption but less than lactose”. For the same molecule, in [6] (Caco-2 monolayers, 20 mM glucose), the “absorption of Lac-endo in presence of glucose” value is “doesn't inhibit the absorption”. For the same molecule, the “absorption of Lac-endo in presence of lactose” value in [6] (Caco-2 monolayers, 20 mM lactose) is “severely inhibits the absorption”. Besides, in series [9] (Sprague-Dawley, rat, plasma, 10 µmol/rat, read-out: time of highest recorded concentration in blood (converted)), the Tmax was 60 min. In [9] (500 μL of 20 mM solution), the “absorption across the GI tract, in words” value was “significant absorption of the compound across the GI tract”.
